The target in this assay is Cystic fibrosis transmembrane conductance regulator (Homo sapiens, UniProt P13569).
Chain of Cystic fibrosis transmembrane conductance regulator (P13569 whole entry): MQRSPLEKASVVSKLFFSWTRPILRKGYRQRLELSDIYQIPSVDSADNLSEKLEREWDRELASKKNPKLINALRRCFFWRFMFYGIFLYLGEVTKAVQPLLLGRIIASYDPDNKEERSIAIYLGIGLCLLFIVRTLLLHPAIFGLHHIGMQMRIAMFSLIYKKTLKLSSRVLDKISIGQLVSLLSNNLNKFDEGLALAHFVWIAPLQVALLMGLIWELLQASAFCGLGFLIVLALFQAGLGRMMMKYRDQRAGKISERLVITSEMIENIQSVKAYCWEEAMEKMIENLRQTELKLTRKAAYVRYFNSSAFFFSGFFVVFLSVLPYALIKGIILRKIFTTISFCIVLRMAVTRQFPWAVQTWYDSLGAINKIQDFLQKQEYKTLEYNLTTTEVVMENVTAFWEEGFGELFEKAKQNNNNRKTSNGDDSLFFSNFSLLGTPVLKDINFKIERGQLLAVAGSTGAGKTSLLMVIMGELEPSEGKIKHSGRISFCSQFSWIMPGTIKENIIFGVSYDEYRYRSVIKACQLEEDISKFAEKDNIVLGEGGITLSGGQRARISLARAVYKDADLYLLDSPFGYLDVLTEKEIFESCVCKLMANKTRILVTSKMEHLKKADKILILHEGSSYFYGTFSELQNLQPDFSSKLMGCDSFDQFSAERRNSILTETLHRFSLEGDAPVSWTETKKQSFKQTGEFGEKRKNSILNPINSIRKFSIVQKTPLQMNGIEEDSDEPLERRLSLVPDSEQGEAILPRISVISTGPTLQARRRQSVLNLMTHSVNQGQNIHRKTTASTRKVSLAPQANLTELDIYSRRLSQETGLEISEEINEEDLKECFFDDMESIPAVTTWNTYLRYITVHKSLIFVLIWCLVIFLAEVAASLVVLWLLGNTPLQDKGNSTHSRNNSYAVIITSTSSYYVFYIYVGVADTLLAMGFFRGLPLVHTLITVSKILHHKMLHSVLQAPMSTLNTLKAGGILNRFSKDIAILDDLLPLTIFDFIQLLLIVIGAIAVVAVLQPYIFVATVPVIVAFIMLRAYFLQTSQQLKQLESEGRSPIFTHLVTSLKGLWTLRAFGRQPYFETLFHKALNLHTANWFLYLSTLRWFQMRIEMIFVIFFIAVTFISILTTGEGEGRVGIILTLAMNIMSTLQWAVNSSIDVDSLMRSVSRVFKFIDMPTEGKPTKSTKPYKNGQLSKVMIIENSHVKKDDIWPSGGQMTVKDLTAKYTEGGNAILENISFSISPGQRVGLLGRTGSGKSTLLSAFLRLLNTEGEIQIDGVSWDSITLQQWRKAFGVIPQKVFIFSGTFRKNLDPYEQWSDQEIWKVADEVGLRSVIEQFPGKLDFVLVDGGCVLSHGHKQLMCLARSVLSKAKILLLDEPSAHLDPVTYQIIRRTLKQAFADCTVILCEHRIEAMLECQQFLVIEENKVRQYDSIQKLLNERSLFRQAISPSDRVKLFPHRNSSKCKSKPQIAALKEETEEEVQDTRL
What is called EC50 is the concentration giving half of the maximal effect. Low readings indicate higher potency in that assay, high ones lower potency in that assay. One may read the IC50 as the concentration at which inhibition is half-maximal. A high value points to lower potency. Take `O=C(O)/C=C/c1ccc(Cn2ccnc2)cc1`: the concentration giving a half-maximal response (EC50) was above 50 µM and the IC50 came out at 3.43 µM.

Regarding `CC(C)C[C@H](NC(=O)[C@H](Cc1ccccc1)NC(=O)c1cnccn1)B(O)O`, the 50% effective concentration (EC50) was above 50 µM.

Take `CN(C/C=C/C#CC(C)(C)C)Cc1cccc2ccccc12` [(6,6-Dimethyl-hept-2-en-4-ynyl)-methyl-naphthalen-1-ylmethyl-amine(Terbinafine)]: the EC50 is above 50 µM and the half-inhibitory concentration (IC50) is above 25 µM.

With `CO[C@H]1/C=C/O[C@@]2(C)Oc3c(C)c(O)c4c(c3C2=O)C(=O)/C(=C/NN2CCN(C)CC2)C(=C4O)NC(=O)/C(C)=C\C=C\C(C)[C@H](O)[C@@H](C)[C@@H](O)[C@@H](C)[C@@H](OC(C)=O)[C@@H]1C` (some centres undefined) [AB00052086_02], the concentration giving a half-maximal response (EC50) is above 50 µM.

In the case of `O=C(O)c1ccccc1-c1c2cc(Br)c(=O)cc-2oc2[c]([Hg])c(O)c(Br)cc12` [AB00053570_02], the 50% effective concentration (EC50) was above 50 µM and the IC50 was above 50 µM.

With `C[n+]1c2cc(N)ccc2cc2ccc(N)cc21` [AB00053810_11], the EC50 was above 50 µM and the concentration for half-maximal inhibition (IC50) was 5.71 µM.

`CN1[C@@H]2CC[C@H]1CC(OC(=O)C(CO)c1ccccc1)C2` (some centres undefined) [AB00694549-11] registered an EC50 above 50 µM and a half-inhibitory concentration (IC50) of 21.4 µM.

In the case of `COc1cc(/C=C(/C#N)c2nc(C)cs2)cc2c1OCO2` [AB00984802-01], the concentration giving a half-maximal response (EC50) was above 67 µM and the 50% inhibitory concentration (IC50) is 21 µM.

Compound `O=S(=O)(Nc1ccc(-c2cn3cccnc3n2)cc1)c1ccc2c(c1)OCCO2` [AB01003479-01] had an EC50 above 49 µM and an IC50 above 49 µM.

Consider `N#Cc1ccc(CN2CCc3cc([N+](=O)[O-])ccc32)c(F)c1` [AB01004372-01], for which the concentration for a half-maximal effect (EC50) is above 67 µM and the IC50 is above 67 µM.

`CC(C)C[C@@H](NC(=O)[C@H](Cc1ccccc1)NC(=O)c1cnccn1)B(O)O` [AB01275474-01] came in with a half-maximal effective concentration (EC50) above 50 µM and a 50% inhibitory concentration (IC50) of 1.29 µM.

`CCN(CC)CCOc1ccc2c(c1)C(=O)c1cc(OCCN(CC)CC)ccc1-2` [Amixin IC] showed a half-maximal effective concentration (EC50) above 50 µM and an IC50 of 30.2 µM.

With `CCCc1nc(C)c2c(=O)[nH]c(-c3cc(S(=O)(=O)N4CCN(CC)CC4)ccc3OCC)nn12` [CHEBI:46295], the EC50 is above 50 µM and the 50% inhibitory concentration (IC50) stood at 0.14 µM.

`CO[C@H]1/C=C/O[C@@]2(C)Oc3c(C)c(O)c4c(c3C2=O)C(=O)/C(=C/NN2CCN(C)CC2)C(=C4O)NC(=O)/C(C)=C\C=C\[C@H](C)[C@H](O)[C@@H](C)[C@@H](O)[C@@H](C)[C@H](OC(C)=O)[C@@H]1C` [Rifampicin] returned a concentration for a half-maximal effect (EC50) above 50 µM.

`O=C(CCCCCCC(=O)Nc1ccccc1)NO` [Zolinza] gave a half-maximal effective concentration (EC50) above 50 µM and an IC50 of 1.55 µM.

The compound `Nc1ccc2cc3ccc(N)cc3nc2c1` [acridine-3,6-diamine] yielded an EC50 above 50 µM and a half-maximal inhibitory concentration (IC50) of 8.88 µM.

These data come from BindingDB's records for doi:10.7270/Q2CZ35ZF (Southern Research Institute, 2016).
